Test results reported in article PMC12668310, “High‐Throughput Synthesis and Screening of a Cyanimide Library Identifies Selective Inhibitors of ISG15‐Specific Protease mUSP18” (Angewandte Chemie (International Ed. in English), 2025).

What follows are compounds tested against T1, mUSP18 (Mus musculus, UniProt Q9WTV6) (assay: High-throughput screening, ISG15ct-RhoMP, single dose 1.25 µM). Details: mUSP18 %inhibition; carboxylic acid (CA) building block alone.
T1 construct: (46-368); His-tag (N); made in house
T1 sequence (Q9WTV6 46-368): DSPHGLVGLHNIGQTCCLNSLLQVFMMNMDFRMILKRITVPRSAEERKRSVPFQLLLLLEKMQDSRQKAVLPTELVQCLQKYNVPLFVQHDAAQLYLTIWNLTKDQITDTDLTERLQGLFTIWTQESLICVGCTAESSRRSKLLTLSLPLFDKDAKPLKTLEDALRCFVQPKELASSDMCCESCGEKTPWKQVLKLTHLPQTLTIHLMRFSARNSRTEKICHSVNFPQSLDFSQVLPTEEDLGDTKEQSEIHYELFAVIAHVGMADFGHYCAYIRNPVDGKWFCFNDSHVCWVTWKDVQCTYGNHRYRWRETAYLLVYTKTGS
Format: biochemical, murine

Row | SMILES | %inh CA only [%]
1 | CN1C(=O)C[C@@H](C(=O)O)[C@@H]1c1cccnc1 [CA306] | 15.74

Same assay, conditions: mUSP18 %inhibition; carboxylic acid (CA) building block alone; read-out: %inh CA only

Row | SMILES | inhibition at 1.25 µM [%]
2 | O=C(O)c1cn(CC2CCCO2)nn1 (stereo not shown) [CA270] | 7.51
3 | Cn1cc(-c2cc[nH]n2)c(C(=O)O)n1 [CA271] | 1
4 | Cc1ccc([1C@@H]2C[1C@H]2C(=O)O)s1 [CA272] | 5.08
5 | CN1CCN(C(=O)[1C@@H]2[1C@@H](C(=O)O)C2(C)C)CC1 [CA273] | 5.18
6 | Cc1csc(N2CCC(C(=O)O)CC2)n1 [CA274] | 5.76
7 | O=C(O)c1cc(Cn2cc(Cl)cn2)cs1 [CA275] | 8.26
8 | Cc1nc(COc2ccc(C(=O)O)cc2)no1 [CA276] | 4.94
9 | CN(Cc1ccnn1C)C(=O)C1CCCCC1C(=O)O (stereo not shown) [CA277] | 5.25
10 | COc1ccc(C(=O)O)cc1S(=O)(=O)NCc1ccccn1 [CA278] | 3.79
11 | O=C(O)c1ccc(CN2CCCCCC2)s1 [CA279] | 4.45
12 | Cc1nc(-c2cc(C)n(CCC(=O)O)c2C)cs1 [CA280] | 11.4
13 | O=C(O)c1ccc(Cl)c(N2CCCS2(=O)=O)c1 [CA281] | 4.15
14 | Cc1noc(C)c1S(=O)(=O)N1CCC(C(=O)O)CC1 [CA282] | 10.4
15 | NS(=O)(=O)c1ccc(CCNS(=O)(=O)c2cccc(C(=O)O)c2)cc1 [CA283] | 7.79
16 | O=C(O)c1ccc(-c2cccs2)[nH]c1=O [CA284] | 9.12
17 | O=C(O)c1cc(N2CCOCC2)ccn1 [CA285] | 2.02
18 | O=C(O)Cc1csc(-c2nnc[nH]2)n1 [CA286] | 1.07
19 | O=C(O)c1ccc(-n2cccn2)cc1 [CA287] | 1.15
20 | Cc1ccccc1COc1cccc(CC(=O)O)c1 [CA288] | 3.53

Row | SMILES | inhibition at 1.25 µM [%]
21 | O=C(O)c1ccc(S(=O)(=O)Nc2cccc(Cl)c2F)o1 [CA289] | 1.57
22 | O=C(O)C1CCCN1C(=O)c1ccncc1 (stereo not shown) [CA290] | -0.53
23 | Cc1ccc(S(=O)(=O)N[C@@H](Cc2ccccc2)C(=O)O)cc1 [CA291] | 3.32
24 | O=C(O)c1csc(-c2ccc(Br)s2)n1 [CA292] | 6.43
25 | O=C(O)c1cc(C2CC2)n[nH]1 [CA293] | 0.33
26 | O=C(O)c1cc(-c2ccncc2)on1 [CA294] | -3.88
27 | O=C(O)c1ccc(N2CCCC2)c(F)c1 [CA295] | -4.32
28 | O=C(O)Cc1ccc(OCCOc2ccccc2)cc1 [CA296] | -2.15
29 | Cc1cc(C(=O)O)c(C)n1-c1cccnc1 [CA297] | -2.57
30 | O=C(O)c1csc(-c2ccncc2)n1 [CA298] | -1.96
31 | O=C(O)C1CN(C(=O)OCc2ccccc2)CCO1 (stereo not shown) [CA300] | -2.04
32 | O=C(O)Cc1cnn(-c2ccccc2)n1 [CA301] | -3.64
33 | O=C(O)c1cccn1-c1c(Cl)cccc1Cl [CA302] | 0.53
34 | O=C(O)c1cnn(-c2ccc(Br)cc2)c1 [CA303] | -3.17
35 | Cn1cc(-c2ccc(C(=O)O)o2)cn1 [CA304] | -4.51
36 | O=C(O)c1ccc(F)c(S(=O)(=O)N2CCC2)c1 [CA305] | -6.19
37 | Cc1nc(COc2ccccc2C(=O)O)no1 [CA307] | 9.87
38 | Cc1onc(-c2ccncc2)c1C(=O)O [CA308] | 7.23
39 | O=C(O)c1cccc(OCCOc2ccccc2Cl)n1 [CA309] | 8.2

Same assay, conditions: mUSP18 %inhibition; carboxylic acid (CA) with coupling reagents DIC/HOBT

Row | SMILES | %inh CA + DIC/HOBT [%]
40 | CN1C(=O)C[C@@H](C(=O)O)[C@@H]1c1cccnc1 [CA306] | -6.80

Same assay, conditions: mUSP18 %inhibition; carboxylic acid (CA) with coupling reagents DIC/HOBT; read-out: %inh CA + DIC/HOBT

Row | SMILES | inhibition at 1.25 µM [%]
41 | O=C(O)c1cn(CC2CCCO2)nn1 (stereo not shown) [CA270] | 8.31
42 | Cn1cc(-c2cc[nH]n2)c(C(=O)O)n1 [CA271] | 7
43 | Cc1ccc([1C@@H]2C[1C@H]2C(=O)O)s1 [CA272] | 8.26
44 | CN1CCN(C(=O)[1C@@H]2[1C@@H](C(=O)O)C2(C)C)CC1 [CA273] | 5.09
45 | Cc1csc(N2CCC(C(=O)O)CC2)n1 [CA274] | 5.39
46 | O=C(O)c1cc(Cn2cc(Cl)cn2)cs1 [CA275] | 6.3
47 | Cc1nc(COc2ccc(C(=O)O)cc2)no1 [CA276] | 6.3
48 | CN(Cc1ccnn1C)C(=O)C1CCCCC1C(=O)O (stereo not shown) [CA277] | 7.6
49 | COc1ccc(C(=O)O)cc1S(=O)(=O)NCc1ccccn1 [CA278] | 6.92
50 | O=C(O)c1ccc(CN2CCCCCC2)s1 [CA279] | 8.32
51 | Cc1nc(-c2cc(C)n(CCC(=O)O)c2C)cs1 [CA280] | 14.1
52 | O=C(O)c1ccc(Cl)c(N2CCCS2(=O)=O)c1 [CA281] | 14.1
53 | Cc1noc(C)c1S(=O)(=O)N1CCC(C(=O)O)CC1 [CA282] | -1.35
54 | NS(=O)(=O)c1ccc(CCNS(=O)(=O)c2cccc(C(=O)O)c2)cc1 [CA283] | -9.16
55 | O=C(O)c1ccc(-c2cccs2)[nH]c1=O [CA284] | -3.37
56 | O=C(O)c1cc(N2CCOCC2)ccn1 [CA285] | -5.92
57 | O=C(O)Cc1csc(-c2nnc[nH]2)n1 [CA286] | -3.16
58 | O=C(O)c1ccc(-n2cccn2)cc1 [CA287] | -3.85
59 | Cc1ccccc1COc1cccc(CC(=O)O)c1 [CA288] | -1.94

Row | SMILES | inhibition at 1.25 µM [%]
60 | O=C(O)c1ccc(S(=O)(=O)Nc2cccc(Cl)c2F)o1 [CA289] | -1.23
61 | O=C(O)C1CCCN1C(=O)c1ccncc1 (stereo not shown) [CA290] | -3.12
62 | Cc1ccc(S(=O)(=O)N[C@@H](Cc2ccccc2)C(=O)O)cc1 [CA291] | -0.72
63 | O=C(O)c1csc(-c2ccc(Br)s2)n1 [CA292] | 1.42
64 | O=C(O)c1cc(C2CC2)n[nH]1 [CA293] | 14.3
65 | O=C(O)c1cc(-c2ccncc2)on1 [CA294] | -0.96
66 | O=C(O)c1ccc(N2CCCC2)c(F)c1 [CA295] | 40.8
67 | O=C(O)Cc1ccc(OCCOc2ccccc2)cc1 [CA296] | 1.46
68 | Cc1cc(C(=O)O)c(C)n1-c1cccnc1 [CA297] | -1.91
69 | O=C(O)c1csc(-c2ccncc2)n1 [CA298] | -1.91
70 | O=C(O)C1CN(C(=O)OCc2ccccc2)CCO1 (stereo not shown) [CA300] | 0.0181
71 | O=C(O)Cc1cnn(-c2ccccc2)n1 [CA301] | 0.63
72 | O=C(O)c1cccn1-c1c(Cl)cccc1Cl [CA302] | 98.1
73 | O=C(O)c1cnn(-c2ccc(Br)cc2)c1 [CA303] | 14.7
74 | Cn1cc(-c2ccc(C(=O)O)o2)cn1 [CA304] | 6.42
75 | O=C(O)c1ccc(F)c(S(=O)(=O)N2CCC2)c1 [CA305] | 9.63
76 | Cc1nc(COc2ccccc2C(=O)O)no1 [CA307] | -3.65
77 | Cc1onc(-c2ccncc2)c1C(=O)O [CA308] | -3.66
78 | O=C(O)c1cccc(OCCOc2ccccc2Cl)n1 [CA309] | -0.34

Same assay, conditions: screened with and without DIC/HOBt

Row | SMILES | inhibition of mUSP18 by individual CA's and coupling reagents
79 | O=C(O)c1cccn1-c1c(Cl)cccc1Cl [CA302] | could inhibit mUSP18
